Measured values reported in patent publication US5977298A, “Calcitonin derivatives” (Kvowa Hakko Kogyo Co., Ltd., priority 1995, dated 1999).
Bridges are numbered along the chain shown (N, C = ends). Where no end group is shown, it is not given here. [ ]: non-standard residue; d: D form. Gla = N[C@@H](CC(C(=O)O)C(=O)O)C(=O)O; Hyp = O=C(O)[C@@H]1C[C@@H](O)CN1; βAla = NCCC(=O)O

Key:
[1] = test system: Osteoclast-like multinucleated cells (osteoclasts); test: Calcitonin-like biological activity: bone resorption pit formation by osteoclasts on ivory pieces; assay type: cell-based, mouse; details: 48 hours
Protocol: 1-1 Preparation of Osteoclasts
Osteoclast-like multinucleated cells which were derived by coculturing mouse osteoblasts and bone marrow cells on collagen gel according to the method described in Akatsu T. et al., J. Bone Miner. Res., 7, 1297-1306 (1992) were used as osteoclasts. That is, osteoblasts derived from mouse vault of skull (5×10^5 cells) were put in a 100 mm dish (IWAKI) collagen-coated with Cellmatrix Type I-A (Nitta Gelatin Co., Ltd.) and cultured for one day in a CO2 incubator (37° C., 5% CO2) [medium: αMEM+10% FCS (both by GIBCO Co., Ltd.)]. After the medium was removed, mouse bone marrow cells (6×10^6 cells) were put on the osteoblasts and 10^-8 M calcitriol (Wako Pure Chemical Industries, Ltd.) and 10^-7 M dexamethasone (Sigma Chemical Co.) were added thereto. TRAP-positive multinucleate cells (osteoclast-like cells) which were obtained 7 days after the inoculation of osteoblasts were used as osteoclasts.
1-2 Culturing of Osteoclasts on Ivory Pieces
After removal of the medium from the dish, and rinsing with PBS(-), a mixture of collagenase and dispase (collagenase: Wako Pure Chemical Industries, Ltd., dispase: Godo Shusei Co., Ltd.) was added thereto to suspend the cells. The cell suspension was put into a tube and centrifuged at 800 rpm for 5 minutes. After removal of the supernatant by suction, the cells were suspended again in αMEM and the suspension was put on ivory pieces (diameter: 4 mm, thickness: 20 μm) in 100 μl portions. The ivory pieces were left to stand in a CO2 incubator for 2 hours to attach the osteoclasts thereto, and then taken out and gently transferred to a 48-well plate (IWAKI) to which a medium containing a test compound had been added in advance to determine the bone resorption activity 48 hours later according to the method described below. The medium containing the test compound was prepared by adding the test compound dissolved in HEPES buffer to the medium described in 1-1 to give the final concentrations shown in Tables 2 and 3.
1-3 Determination of Bone Resorption Activity by Staining of Ivory Pieces and Measurement of Bone Resorption Pit Area
The ivory pieces taken out of the medium were put into a tube containing 0.1 N aqueous ammonia and subjected to sonication treatment with a sonicator for 20-30 seconds to remove the osteoclasts. After being washed with distilled water to remove ammonia, the ivory pieces were dipped in a hematoxylin-eosin staining solution to stain resorption pits. The bone resorption pit formation rate was calculated based on microphotographs of stained ivory pieces according to the following equation by the use of an image analyzer. [formula]
The bone resorption inhibitory activity of test compounds were calculated according to the following equation. [formula]
A; Bone resorption pit formation rate obtained using no test compound
B; Bone resorption pit formation rate obtained using a test compound

[2] = test system: male SD strain rats; test: Serum calcium content after intravenous administration to rats; assay type: in vivo, rat; details: 60 minutes after administration; for Serum calcium Content: 0.5 ml i.v. tail vein, value ± standard error
Protocol: Four-weeks-old male SD strain rats (Clea Japan, Inc.) were fasted for 24 hours before the test and were offered in groups each consisting of 8 rats. Each rat of the control group was given 0.5 ml of physiological saline (Otsuka Pharmaceutical Co., Ltd.) containing 1% BSA (Sigma Chemical Co.) by intravenous administration through the tail vein. In the same manner, each rat of Compound 9-administered groups was given 0.5 ml of a solution of Compound 9 in physiological saline containing 1% BSA. Blood was collected from the right femoral artery of a rat 60 minutes after the administration and was centrifuged at 4° C. at 3000 rpm for 15 minutes to obtain a blood serum, and the serum calcium content was determined with calcium C-test WAKO (Wako Pure Chemical Industries, Ltd.). The results are expressed in terms of value ± standard error, and the difference was judged to be statistically significant at P <0.05 according to the Williams-Wilcoxon test.

| Substance | Bone resorption inhibitory activity (% inhibition) ([1]; compound concentration 10^-6 M) [%] | other results |
| --- | --- | --- |
| Compound 3: SEQ ID NO:3; cyclic peptide Compound 16 condensed to the N-terminus of the Compound 19 peptide (GNWHGTAPDVLAALAAALAALAALPRTNTGSGTP-NH2; lactam (positions not given here); not fully specified (bridges); printed as ⌐GNWHGTAPDVLAALAAALAALAALPRTNTGSGTP—NH$_2$) | 65 |  |
| Compound 10: SEQ ID NO:10; cyclic peptide Compound 16 condensed to the N-terminus of the Compound 26 peptide (GNWHGTAPDGLGSLT[Gla]VLAKLAEYPRTNTGSGTP-NH2; lactam (positions not given here); not fully specified (bridges); also: cyclic peptide Compound 16 condensed at N-terminus) | 27 |  |
| Compound 2: SEQ ID NO:2; cyclic peptide Compound 16 condensed to the N-terminus of the Compound 18 peptide (GNWHGTAPDVLGKLSQELHKLQTYPRTNTGSGTP-NH2; lactam N-9) |  | Bone resorption inhibitory activity (% inhibition) ([1]; compound concentration 10^-8 M): 36% |
| H-Val-Leu-Gly-Lys-Leu-Ser-Gln-Glu-Leu-His-Lys-Leu-Gln-Thr-Tyr-Pro-Arg-Thr-Asn-Thr-Gly-Ser-Gly-Thr-Pro-NH2 (H-VLGKLSQELHKLQTYPRTNTGSGTP-NH2) [Compound 18, linear partial calcitonin peptide, comparison for Compound 2, reference compound] |  | Bone resorption inhibitory activity (% inhibition) ([1]; compound concentration 10^-8 M): 15% |
| Compound 1: SEQ ID NO:1; cyclic peptide Compound 15 condensed to the N-terminus of the Compound 17 peptide (GNWHGTAPDWLGKLSQELHKLQTYPRTNTGSGTP-NH2; lactam N-9) |  | Bone resorption inhibitory activity (% inhibition) ([1]; compound concentration 10^-7 M): 61% |
| Compound 8: SEQ ID NO:8; cyclic peptide Compound 16 condensed to the N-terminus of the Compound 24 peptide (GNWHGTAPDGLGSLTEVLAKLAAYPRTNT[βAla]SGTP-NH2; lactam (positions not given here); not fully specified (bridges); also: cyclic peptide Compound 16 condensed at N-terminus) | 39 |  |
| Compound 11: SEQ ID NO:11; cyclic peptide Compound 16 condensed to the N-terminus of the Compound 27 peptide (GNWHGTAPDGLGSLTEVLAKLA[Gla]YPRTNTGSGTP-NH2; lactam (positions not given here); not fully specified (bridges); also: cyclic peptide Compound 16 condensed at N-terminus) |  | Bone resorption inhibitory activity (% inhibition) ([1]; compound concentration 10^-7 M): 42% |
| Compound 4: SEQ ID NO:4; cyclic peptide Compound 16 condensed to the N-terminus of the Compound 20 peptide (GNWHGTAPDMLGTYTQDFNKFHTFPQTAIGVGAP-NH2; lactam (positions not given here); not fully specified (bridges); printed as ⌐GNWHGTAPDMLGTYTQDFNKFHTFPQTAIGVGAP—NH$_2$; also: cyclic peptide Compound 16 condensed at N-terminus) | 29 |  |
| H-Val-Leu-Ala-Ala-Leu-Ala-Ala-Ala-Leu-Ala-Ala-Leu-Ala-Ala-Leu-Pro-Arg-Thr-Asn-Thr-Gly-Ser-Gly-Thr-Pro-NH2 (H-VLAALAAALAALAALPRTNTGSGTP-NH2) [Compound 19, linear calcitonin-like peptide, comparison for Compound 3, reference compound] | 6 |  |
| Compound 7: SEQ ID NO:7; cyclic peptide Compound 16 condensed to the N-terminus of the Compound 23 peptide (GNWHGTAPDGLGSLTEVLAKLAAY[Hyp]RTNTGSGT[Hyp]-NH2; lactam (positions not given here); not fully specified (bridges); also: cyclic peptide Compound 16 condensed at N-terminus) |  | Bone resorption inhibitory activity (% inhibition) ([1]; compound concentration 10^-8 M): 50% |
| Compound 9: SEQ ID NO:9; cyclic peptide Compound 16 condensed to the N-terminus of the Compound 25 peptide (GNWHGTAPDGLGSLTEVLAKLAEYPRTNTGSGTP-NH2; lactam (positions not given here); not fully specified (bridges); printed as ⌐GNWHGTAPDGLGSLTEVLAKLAEYPRTNTGSGTP┐— NH$_2$; also: cyclic peptide Compound 16 condensed at N-terminus) | 53 | Serum calcium Content ([2]; compound concentration 1 μg/ml): 10.41 ± 0.13 mg/dL; Serum calcium Content ([2]; compound concentration 10 μg/ml): 10.20 ± 0.16 mg/dL; Serum calcium Content ([2]; compound concentration 100 μg/ml, P < 0.01 vs control): 7.54 ± 0.29 mg/dL; serum calcium content compared with that of the control group ([2]; concentration of 100 μg/l (so in the source), 0.5 ml i.v.): significantly lowered |
| Compound 6: SEQ ID NO:6; cyclic peptide Compound 16 condensed to the N-terminus of the Compound 22 peptide (GNWHGTAPDGLGSLTEVLAKLAAYPRSQTGAGTP-NH2; lactam (positions not given here); not fully specified (bridges); printed as ⌐GNWHGTAPDGLGSLTEVLAKLAAYPRSQTGAGTP—NH$_2$; also: cyclic peptide Compound 16 condensed at N-terminus) | 29 |  |
| Compound 5: SEQ ID NO:5; cyclic peptide Compound 16 condensed to the N-terminus of the Compound 21 peptide (GNWHGTAPDGLGSLTEVLAKLAAYPRTNTGSGTP-NH2; lactam (positions not given here); not fully specified (bridges); printed as ⌐GNWHGTAPDGLGSLTEVLAKLAAYPRTNTGSGTP—NH$_2$; also: cyclic peptide Compound 16 condensed at N-terminus) | 35 |  |
| Compound 13: SEQ ID NO:13; cyclic peptide Compound 16 condensed to the N-terminus of the Compound 29 peptide (GNWHGTAPDGLGSLTEVLAKLAEYP[dR]TNTGSGTP-NH2; lactam (positions not given here); not fully specified (bridges); printed as ⌐GNWHGTAPDGLGSLTEVLAKLAEYPrTNTGSGTP┐— NH$_2$; also: cyclic peptide Compound 16 condensed at N-terminus) | 35 |  |
| Compound 14: SEQ ID NO:14; cyclic peptide Compound 16 condensed to the N-terminus of the Compound 30 peptide (GNWHGTAPDGLGSLTEVLAKLAEYPKTNTGSGTP-NH2; lactam (positions not given here); not fully specified (bridges); printed as ⌐GNWHGTAPDGLGSLTEVLAKLAEYPKTNTGSGTP┐— NH$_2$; also: cyclic peptide Compound 16 condensed at N-terminus) | 40 |  |
| H-LGKLSQELHKLQTYPRTNTGSGTP-NH2 [Compound 17, reference compound] |  | Bone resorption inhibitory activity (% inhibition) ([1]; compound concentration 10^-7 M): 0% |
